Experimental data: the supplement of paper PMC10307832

What was measured:
Experiment in all cases: relative viability (nuclei count vs DMSO), 5 days (fraction); higher = more cells survive
[1] = system: 201T
Summary of the method: (§1)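 The day after seeding in 1536-well plates, lung cancer cell lines were treated by pin tool with a single drug, or with a fixed anchor-drug dose together with five library-drug doses (not always all listed) in √10 steps. After 5 days, a combined fix-and-stain solution (final 0.05% Triton X-100, 1% formaldehyde, 1 ug/ml Hoechst) was added. Nuclei counted on 4× images gave relative viability as treated counts over vehicle counts, reported as the median of duplicate plates.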

[2] = system: EMC-BAC-2
Summary of the method: as §1

[3] = system: EPLC-272H
Summary of the method: as §1

[4] = system: HCC-78
Summary of the method: as §1

[5] = system: LCLC-103H
Summary of the method: as §1

[6] = system: NCI-H1355
Summary of the method: as §1

[7] = system: NCI-H1666
Summary of the method: as §1

[8] = system: NCI-H1755
Summary of the method: as §1

[9] = system: NCI-H1793
Summary of the method: as §1

[10] = system: NCI-H1975
Summary of the method: as §1

[11] = system: NCI-H2126
Summary of the method: as §1

[12] = system: NCI-H2170
Summary of the method: as §1

[13] = system: NCI-H2228
Summary of the method: as §1

[14] = system: NCI-H2342
Summary of the method: as §1

[15] = system: NCI-H441
Summary of the method: as §1

[16] = system: NCI-H520
Summary of the method: as §1

[17] = system: NCI-H727
Summary of the method: as §1

[18] = system: NCI-H838
Summary of the method: as §1

[19] = system: PC-3 [JPC-3]
Summary of the method: as §1

[20] = system: SK-MES-1
Summary of the method: as §1

[21] = system: SW 1573
Summary of the method: as §1

[22] = system: NCI-H1792
Summary of the method: as §1

Nc1cccc2c1CN(C1CCC(=O)NC1=O)C2=O (stereo unspecified) [Lenalidomide] + Cc1cc(Nc2cc(N3CCN(C)CC3)nc(Sc3ccc(NC(=O)C4CC4)cc3)n2)n[nH]1 [Tozasertib] (partner 0.1 µM)
relative viability ([1]; first compound 0.253 µM): 1.01 | relative viability ([1]; first compound 2.53 µM): 1.02 | relative viability ([1]; first compound 8 µM): 1.02 | relative viability ([2]; first compound 0.253 µM): 0.287 | relative viability ([2]; first compound 0.8 µM): 0.272 | relative viability ([2]; first compound 2.53 µM): 0.298 | relative viability ([2]; first compound 8 µM): 0.333 | relative viability ([3]; first compound 0.253 µM): 0.343 | relative viability ([3]; first compound 0.8 µM): 0.229 | relative viability ([3]; first compound 2.53 µM): 0.349 | relative viability ([3]; first compound 8 µM): 0.256 | relative viability ([4]; first compound 0.253 µM): 0.537 | relative viability ([4]; first compound 0.8 µM): 0.44 | relative viability ([4]; first compound 2.53 µM): 0.443 | relative viability ([4]; first compound 8 µM): 0.49 | relative viability ([5]; first compound 0.253 µM): 0.47 | relative viability ([5]; first compound 0.8 µM): 0.517 | relative viability ([5]; first compound 2.53 µM): 0.644 | relative viability ([5]; first compound 8 µM): 0.566 | relative viability ([6]; first compound 0.253 µM): 0.578 | relative viability ([6]; first compound 2.53 µM): 0.559 | relative viability ([6]; first compound 8 µM): 0.59 | relative viability ([7]; first compound 0.253 µM): 0.585 | relative viability ([7]; first compound 2.53 µM): 0.655 | relative viability ([7]; first compound 8 µM): 0.653 | relative viability ([8]; first compound 0.253 µM): 0.638 | relative viability ([8]; first compound 0.8 µM): 0.614 | relative viability ([8]; first compound 2.53 µM): 0.597 | relative viability ([8]; first compound 8 µM): 0.541 | relative viability ([9]; first compound 0.253 µM): 0.356 | relative viability ([9]; first compound 2.53 µM): 0.383 | relative viability ([9]; first compound 8 µM): 0.349 | relative viability ([10]; first compound 0.253 µM): 0.886 | relative viability ([10]; first compound 0.8 µM): 0.755 | relative viability ([10]; first compound 2.53 µM): 0.844 | relative viability ([10]; first compound 8 µM): 0.849 | relative viability ([11]; first compound 0.253 µM): 0.873 | relative viability ([11]; first compound 0.8 µM): 0.817 | relative viability ([11]; first compound 2.53 µM): 0.82 | relative viability ([11]; first compound 8 µM): 0.737 | relative viability ([12]; first compound 0.253 µM): 0.612 | relative viability ([12]; first compound 0.8 µM): 0.608 | relative viability ([12]; first compound 2.53 µM): 0.747 | relative viability ([12]; first compound 8 µM): 0.753 | relative viability ([13]; first compound 0.253 µM): 0.288 | relative viability ([13]; first compound 0.8 µM): 0.338 | relative viability ([13]; first compound 2.53 µM): 0.283 | relative viability ([13]; first compound 8 µM): 0.345 | relative viability ([14]; first compound 0.253 µM): 0.504 | relative viability ([14]; first compound 0.8 µM): 0.49 | relative viability ([14]; first compound 2.53 µM): 0.649 | relative viability ([14]; first compound 8 µM): 0.441 | relative viability ([15]; first compound 0.253 µM): 0.72 | relative viability ([15]; first compound 0.8 µM): 0.572 | relative viability ([15]; first compound 2.53 µM): 0.621 | relative viability ([15]; first compound 8 µM): 0.522 | relative viability ([16]; first compound 0.253 µM): 0.429 | relative viability ([16]; first compound 0.8 µM): 0.461 | relative viability ([16]; first compound 2.53 µM): 0.468 | relative viability ([16]; first compound 8 µM): 0.374 | relative viability ([17]; first compound 0.253 µM): 0.615 | relative viability ([17]; first compound 0.8 µM): 0.585 | relative viability ([17]; first compound 2.53 µM): 0.56 | relative viability ([17]; first compound 8 µM): 0.756 | relative viability ([18]; first compound 0.253 µM): 0.322 | relative viability ([18]; first compound 0.8 µM): 0.28 | relative viability ([18]; first compound 2.53 µM): 0.317 | relative viability ([18]; first compound 8 µM): 0.298 | relative viability ([19]; first compound 0.253 µM): 0.909 | relative viability ([19]; first compound 0.8 µM): 0.899 | relative viability ([19]; first compound 2.53 µM): 1.03 | relative viability ([19]; first compound 8 µM): 0.955 | relative viability ([20]; first compound 0.253 µM): 0.865 | relative viability ([20]; first compound 0.8 µM): 0.802 | relative viability ([20]; first compound 2.53 µM): 0.913 | relative viability ([20]; first compound 8 µM): 0.98 | relative viability ([21]; first compound 0.253 µM): 0.159 | relative viability ([21]; first compound 0.8 µM): 0.193 | relative viability ([21]; first compound 2.53 µM): 0.276 | relative viability ([21]; first compound 8 µM): 0.198

Nc1cccc2c1CN(C1CCC(=O)NC1=O)C2=O (stereo unspecified) [Lenalidomide] + NC(=O)Nc1cc(-c2cccc(F)c2)sc1C(=O)N[C@H]1CCCNC1 [AZD7762] (partner 0.2 µM)
relative viability ([1]; first compound 0.253 µM): 0.594 | relative viability ([1]; first compound 0.8 µM): 0.848 | relative viability ([1]; first compound 2.53 µM): 0.617 | relative viability ([1]; first compound 8 µM): 0.529 | relative viability ([2]; first compound 0.253 µM): 1.12 | relative viability ([2]; first compound 0.8 µM): 0.64 | relative viability ([2]; first compound 2.53 µM): 1.19 | relative viability ([2]; first compound 8 µM): 0.931 | relative viability ([3]; first compound 0.253 µM): 0.23 | relative viability ([3]; first compound 0.8 µM): 0.202 | relative viability ([3]; first compound 2.53 µM): 0.213 | relative viability ([3]; first compound 8 µM): 0.201 | relative viability ([4]; first compound 0.253 µM): 0.767 | relative viability ([4]; first compound 0.8 µM): 0.537 | relative viability ([4]; first compound 2.53 µM): 0.617 | relative viability ([4]; first compound 8 µM): 0.417 | relative viability ([5]; first compound 0.253 µM): 0.755 | relative viability ([5]; first compound 0.8 µM): 0.796 | relative viability ([5]; first compound 2.53 µM): 0.786 | relative viability ([5]; first compound 8 µM): 0.589 | relative viability ([6]; first compound 0.253 µM): 0.798 | relative viability ([6]; first compound 0.8 µM): 0.59 | relative viability ([6]; first compound 2.53 µM): 0.765 | relative viability ([6]; first compound 8 µM): 0.696 | relative viability ([7]; first compound 0.253 µM): 0.895 | relative viability ([7]; first compound 0.8 µM): 0.716 | relative viability ([7]; first compound 2.53 µM): 0.985 | relative viability ([7]; first compound 8 µM): 0.874 | relative viability ([8]; first compound 0.253 µM): 0.458 | relative viability ([8]; first compound 0.8 µM): 0.498 | relative viability ([8]; first compound 2.53 µM): 0.452 | relative viability ([8]; first compound 8 µM): 0.454 | relative viability ([22]; first compound 0.253 µM): 0.894 | relative viability ([22]; first compound 0.8 µM): 0.571 | relative viability ([22]; first compound 2.53 µM): 0.971 | relative viability ([22]; first compound 8 µM): 0.479 | relative viability ([9]; first compound 0.253 µM): 0.476 | relative viability ([9]; first compound 2.53 µM): 0.821 | relative viability ([9]; first compound 8 µM): 0.389 | relative viability ([10]; first compound 0.253 µM): 0.8 | relative viability ([10]; first compound 0.8 µM): 0.642 | relative viability ([10]; first compound 2.53 µM): 0.776 | relative viability ([10]; first compound 8 µM): 0.713 | relative viability ([11]; first compound 0.253 µM): 0.973 | relative viability ([11]; first compound 0.8 µM): 1.03 | relative viability ([11]; first compound 2.53 µM): 1.05 | relative viability ([11]; first compound 8 µM): 0.947 | relative viability ([12]; first compound 0.253 µM): 0.861 | relative viability ([12]; first compound 0.8 µM): 0.703 | relative viability ([12]; first compound 2.53 µM): 0.976 | relative viability ([12]; first compound 8 µM): 0.739 | relative viability ([14]; first compound 0.253 µM): 0.494 | relative viability ([14]; first compound 0.8 µM): 0.402 | relative viability ([14]; first compound 2.53 µM): 0.529 | relative viability ([14]; first compound 8 µM): 0.449 | relative viability ([15]; first compound 0.253 µM): 1.3 | relative viability ([15]; first compound 0.8 µM): 1.15 | relative viability ([15]; first compound 2.53 µM): 1.17 | relative viability ([15]; first compound 8 µM): 1.26 | relative viability ([17]; first compound 0.253 µM): 0.655 | relative viability ([17]; first compound 0.8 µM): 0.574 | relative viability ([17]; first compound 2.53 µM): 0.555 | relative viability ([17]; first compound 8 µM): 0.709 | relative viability ([18]; first compound 0.253 µM): 0.938 | relative viability ([18]; first compound 0.8 µM): 0.871 | relative viability ([18]; first compound 2.53 µM): 0.962 | relative viability ([18]; first compound 8 µM): 1.03 | relative viability ([19]; first compound 0.253 µM): 0.888 | relative viability ([19]; first compound 0.8 µM): 0.467 | relative viability ([19]; first compound 2.53 µM): 0.944 | relative viability ([19]; first compound 8 µM): 0.667
